Measured values: ChEMBL document CHEMBL4000228, “Synthesis of bioactive and fluorescent pyridine-triazole-coumarin peptidomimetics through sequential click-multicomponent reactions” (Bioorg Med Chem Lett, 2017)
Activity calls are given as the source filed them. The rule behind the calls is not given here.

Key:
MCF7 [1] = experiment: Induction of morphological changes in human MCF7 cells at 40 uM after 48 hrs by DAPI staining based inverted light microscopic method; format: functional, cell-based
MCF7 [2] = experiment: Induction of morphological changes in human MCF7 cells at 40 uM after 48 hrs by DAPI staining based fluorescence microscopic method; format: functional, cell-based

## COc1ccc(C(CC(=O)c2cc3ccccc3oc2=O)NC(=O)CCn2cc(COc3ccc(-c4c(C#N)c(N)nc(Sc5ccccc5)c4C#N)cc3OC)nn2)cc1 (configuration not stated)
MCF7 [1]
  Activity: Active
MCF7 [2]
  Activity: Active
